Here are results for 31 compounds from US10988478B1, “Pyrazolo[1,5a]pyrimidine derivatives as IRAK4 modulators” (Genentech, Inc., priority 2015, dated 2021).

In general, Ki refers to a measure of affinity in units of concentration, obtained from inhibition or displacement.

Chain of human IRAK4 (Q9NWZ3 whole entry, the tested form may be a part): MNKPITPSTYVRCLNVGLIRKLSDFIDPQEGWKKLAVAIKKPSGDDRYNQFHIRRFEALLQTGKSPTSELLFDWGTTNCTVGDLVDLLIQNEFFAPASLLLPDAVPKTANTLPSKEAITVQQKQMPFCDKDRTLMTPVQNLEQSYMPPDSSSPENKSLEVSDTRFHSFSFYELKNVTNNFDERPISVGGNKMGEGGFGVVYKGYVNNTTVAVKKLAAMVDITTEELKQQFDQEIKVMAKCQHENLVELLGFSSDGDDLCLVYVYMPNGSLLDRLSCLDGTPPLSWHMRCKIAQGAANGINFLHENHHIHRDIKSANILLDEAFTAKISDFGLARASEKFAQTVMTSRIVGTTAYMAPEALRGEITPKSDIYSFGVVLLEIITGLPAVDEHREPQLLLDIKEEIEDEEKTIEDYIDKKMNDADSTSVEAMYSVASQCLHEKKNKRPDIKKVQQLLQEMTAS

This test addresses human IRAK4 (Homo sapiens (Human), UniProt Q9NWZ3). The test is described as follows: IRAK4 kinase inhibition, Transcreener fluorescence polarization ADP assay. The class given is biochemical. The note with it: recombinant full-length His6-IRAK4; 125 uM ATP; 90 min; Ki computed using ATP Km 642 uM. The procedure:
Compounds were assayed for inhibition of human IRAK4 and IRAK1 catalytic activity using recombinant enzyme produced from insect cells. Full-length IRAK4 protein, carrying an N-terminal His6-Tag, was obtained from Life Technologies (Carlsbad, Calif., USA). The IRAK1 construct was produced internally and was comprised of IRAK1 residues Arg194 to Ser712, preceded by an NH2-terminal His6 tag and the coding sequence for glutathione-S-transferase.
(Fluorescence polarisation rises when a labelled molecule tumbles more slowly, as on binding a larger partner.)
Turning to `Cc1cnc2c(C(=O)Nc3cc4c(cc3N3CCC(CO)CC3)OCCN4)cnn2c1` [Example 7, N-(7-(4-(Hydroxymethyl)piperidin-1-yl)-3,4-dihydro-2H-benzo[b][1,4]oxazin-6-yl)-6-methylpyrazolo[1,5-a]pyrimidine-3-carboxamide], the Ki is 0.0039 µM. The same measure for `CC1(C)Cc2cc(NC(=O)c3cnn4cccnc34)c(N3CCN(CC(F)F)CC3)cc2O1` [Example 8, N-[6-[4-(2,2-Difluoroethyl)piperazin-1-yl]-2,2-dimethyl-3H-benzofuran-5-yl]pyrazolo[1,5-a]pyrimidine-3-carboxamide]: 0.0023 µM; for `O=C(Nc1cc2c(cc1N1CCOCC1)OCCN2)c1cnn2cccnc12` [Example 9, N-(7-Morpholino-3,4-dihydro-2H-benzo[b][1,4]oxazin-6-yl)pyrazolo[1,5-a]pyrimidine-3-carboxamide]: 0.098 µM.

On to `CC1COc2cc(N3CCOCC3)c(NC(=O)c3cnn4cccnc34)cc2N1` (stereo not shown) [Example 10, N-(3-Methyl-7-morpholino-3,4-dihydro-2H-benzo[b][1,4]oxazin-6-yl)pyrazolo[1,5-a]pyrimidine-3-carboxamide], for which the Ki came to 0.27 µM. The same measure for `CC1CNc2cc(NC(=O)c3cnn4cccnc34)c(N3CCOCC3)cc2O1` (stereo not shown) [Example 11, N-(2-Methyl-7-morpholino-3,4-dihydro-2H-benzo[b][1,4]oxazin-6-yl)pyrazolo[1,5-a]pyrimidine-3-carboxamide]: 0.072 µM; for `Cc1cnc2c(C(=O)Nc3cc4c(cc3N3CCC(CO)CC3)OC(C)(C)C4)cnn2c1` [Example 12, N-(6-(4-(Hydroxymethyl)piperidin-1-yl)-2,2-dimethyl-2,3-dihydrobenzofuran-5-yl)-6-methylpyrazolo[1,5-a]pyrimidine-3-carboxamide]: 0.002 µM. For the compound `CC1(C)Cc2cc(NC(=O)c3cnn4cccnc34)c(N3CC[C@H](CO)C3)cc2O1` [Example 13, (S)—N-(6-(3-(hydroxymethyl)pyrrolidin-1-yl)-2,2-dimethyl-2,3-dihydrobenzofuran-5-yl)pyrazolo[1,5-a]pyrimidine-3-carboxamide], the Ki came to 0.0067 µM. With `CC1Cc2cc(NC(=O)c3cnn4cccnc34)c(N3CCOCC3)cc2O1` (stereo not shown) [Example 14, N-(2-Methyl-6-morpholino-2,3-dihydrobenzofuran-5-yl)pyrazolo[1,5-a]pyrimidine-3-carboxamide], the Ki is 0.019 µM. For `CC1(C)Cc2cc(NC(=O)c3cnn4cccnc34)c(N3CC[C@@H](CO)C3)cc2O1` [Example 15, (R)—N-(6-(3-(Hydroxymethyl)pyrrolidin-1-yl)-2,2-dimethyl-2,3-dihydrobenzofuran-5-yl)pyrazolo[1,5-a]pyrimidine-3-carboxamide], the Ki came out at 0.012 µM. `Cc1cnc2c(C(=O)Nc3cc4c(cc3N3CCC(CO)CC3)OC(C)(CO)C4)cnn2c1` (stereo not shown) [Example 16, N-(2-(Hydroxymethyl)-6-(4-(hydroxymethyl)piperidin-1-yl)-2-methyl-2,3-dihydrobenzofuran-5-yl)-6-methylpyrazolo[1,5-a]pyrimidine-3-carboxamide]: the Ki was 0.0019 µM. In the case of `CC1(C)CN(c2cc3c(cc2NC(=O)c2cnn4cccnc24)CC(C)(CO)O3)CCO1` (stereo not shown) [Example 17, N-(6-(2,2-Dimethylmorpholino)-2-(hydroxymethyl)-2-methyl-2,3-dihydrobenzofuran-5-yl)pyrazolo[1,5-a]pyrimidine-3-carboxamide] it was 0.18 µM; in that of `CC1(CO)CCN(c2cc3c(cc2NC(=O)c2cnn4cccnc24)CC(C)(C)O3)C1` (stereo not shown) [Example 18, N-(6-(3-(Hydroxymethyl)-3-methylpyrrolidin-1-yl)-2,2-dimethyl-2,3-dihydrobenzofuran-5-yl)pyrazolo[1,5-a]pyrimidine-3-carboxamide], 0.021 µM. In the case of `CC1(CO)Cc2cc(NC(=O)c3cnn4cccnc34)c(N3CCN(CC(F)F)CC3)cc2O1` (stereo not shown) [Example 19, N-[6-[4-(2,2-Difluoroethyl)piperazin-1-yl]-2-(hydroxymethyl)-2-methyl-3H-benzofuran-5-yl]pyrazolo[1,5-a]pyrimidine-3-carboxamide] it was 0.0033 µM; in that of `CNC[C@H]1OC[C@@H](c2cc3c(cc2NC(=O)c2cnn4cccnc24)CC(C)(C)O3)CO1` [Example 20, Cis-N-[2,2-dimethyl-6-[2-(methylaminomethyl)-1,3-dioxan-5-yl]-3H-benzofuran-5-yl]pyrazolo[1,5-a]pyrimidine-3-carboxamide], 0.78 µM; in that of `CCC1(C)Cc2cc(NC(=O)c3cnn4cccnc34)c(N3CCOCC3)cc2O1` (stereo not shown) [Example 21, N-(2-Ethyl-2-methyl-6-morpholino-2,3-dihydrobenzofuran-5-yl)pyrazolo[1,5-a]pyrimidine-3-carboxamide], 0.0064 µM.

Take `CN(C)C(=O)C1(C)Cc2cc(NC(=O)c3cnn4cccnc34)c(N3CCOCC3)cc2O1` (stereo not shown) [Example 23, N-(2-(Dimethylcarbamoyl)-2-methyl-6-morpholino-2,3-dihydrobenzofuran-5-yl)pyrazolo[1,5-a]pyrimidine-3-carboxamide]: the Ki turned out to be 0.031 µM.

As for `CC1(C)Cc2cc(NC(=O)c3cnn4cccnc34)c(N3CCC(C(N)C(F)(F)F)CC3)cc2O1` (stereo not shown) [Example 24, N-[6-[4-(1-Amino-2,2,2-trifluoro-ethyl)-1-piperidyl]-2,2-dimethyl-3H-benzofuran-5-yl]pyrazolo[1,5-a]pyrimidine-3-carboxamide], the Ki came to 0.0029 µM. The same measure for `COCC1(C)Cc2cc(NC(=O)c3cnn4cccnc34)c(N3CCOCC3)cc2O1` (stereo not shown) [Example 25, N-(2-(Methoxymethyl)-2-methyl-6-morpholino-2,3-dihydrobenzofuran-5-yl)pyrazolo[1,5-a]pyrimidine-3-carboxamide]: 0.01 µM; for `CC1(CO)Cc2cc(NC(=O)c3cnn4cccnc34)c(N3CCC(F)(F)CC3)cc2O1` (stereo not shown) [Example 26, N-[6-(4,4-Difluoro-1-piperidyl)-2-(hydroxymethyl)-2-methyl-3H-benzofuran-5-yl]pyrazolo[1,5-a]pyrimidine-3-carboxamide]: 0.0051 µM; for `Cc1cnc2c(C(=O)Nc3cc4c(cc3N3CCOCC3)O[C@@](C)(CO)C4)cnn2c1` [Example 29, (R)—N-(2-(hydroxymethyl)-2-methyl-6-morpholino-2,3-dihydrobenzofuran-5-yl)-6-methylpyrazolo[1,5-a]pyrimidine-3-carboxamide]: 0.009 µM.

In the case of `Cc1cnc2c(C(=O)Nc3cc4c(cc3N3CCOCC3)O[C@](C)(CO)C4)cnn2c1` [Example 30, (S)—N-(2-(hydroxymethyl)-2-methyl-6-morpholino-2,3-dihydrobenzofuran-5-yl)-6-methylpyrazolo[1,5-a]pyrimidine-3-carboxamide], the Ki was 0.032 µM.

Regarding `CC1(C)Cc2cc(NC(=O)c3cnn4cccnc34)c(N3CCOCC3)cc2O1` [Example 33, N-(2,2-dimethyl-6-morpholino-2,3-dihydrobenzofuran-5-yl)pyrazolo[1,5-a]pyrimidine-3-carboxamide], the Ki was determined as 0.005 µM. On to `COc1cc2c(cc1NC(=O)c1cnn3cccnc13)CC(C)(C)O2` [Example 34, N-(6-Methoxy-2,2-dimethyl-2,3-dihydrobenzofuran-5-yl)pyrazolo[1,5-a]pyrimidine-3-carboxamide], for which the Ki is 0.038 µM. For `O=C(Nc1cc2c(cc1N1CCOCC1)OCCCN2)c1cnn2cccnc12` [Example 35, N-(8-Morpholino-2,3,4,5-tetrahydrobenzo[b][1,4]oxazepin-7-yl)pyrazolo[1,5-a]pyrimidine-3-carboxamide], the Ki is 0.69 µM. Consider `CC1(C)CN(c2cc3c(cc2NC(=O)c2cnn4cccnc24)C[C@](C)(CO)O3)CCO1` [Example 36, (R)—N-(6-(2,2-dimethylmorpholino)-2-(hydroxymethyl)-2-methyl-2,3-dihydrobenzofuran-5-yl)pyrazolo[1,5-a]pyrimidine-3-carboxamide], for which the Ki is 0.15 µM. For the compound `CC1(C)CN(c2cc3c(cc2NC(=O)c2cnn4cccnc24)C[C@@](C)(CO)O3)CCO1` [Example 37, (S)—N-(6-(2,2-dimethylmorpholino)-2-(hydroxymethyl)-2-methyl-2,3-dihydrobenzofuran-5-yl)pyrazolo[1,5-a]pyrimidine-3-carboxamide], the Ki was 0.37 µM. In the case of `CC1(C(=O)O)Cc2cc(NC(=O)c3cnn4cccnc34)c(N3CCOCC3)cc2O1` (stereo not shown) [Example 38, 2-Methyl-6-morpholino-5-(pyrazolo[1,5-a]pyrimidine-3-carboxamido)-2,3-dihydrobenzofuran-2-carboxylicacid] it was 0.36 µM. Take `O=C(Nc1cc2c(cc1N1CCOCC1)OC1(CCOCC1)C2)c1cnn2cccnc12` [Example 39, N-(6-Morpholino-2′,3′,5′,6′-tetrahydro-3H-spiro[benzofuran-2,4′-pyran]-5-yl)pyrazolo[1,5-a]pyrimidine-3-carboxamide]: the Ki was 0.011 µM.

On to `CC1(C)Cc2cc(NC(=O)c3cnn4cccnc34)c(N3CCC(F)(CO)CC3)cc2O1` [Example 40, N-(6-(4-Fluoro-4-(hydroxymethyl)piperidin-1-yl)-2,2-dimethyl-2,3-dihydrobenzofuran-5-yl)pyrazolo[1,5-a]pyrimidine-3-carboxamide], for which the Ki turned out to be 0.001 µM.

Consider `CC1(C)Cc2cc(NC(=O)c3cnn4cccnc34)c(N3CCS(=O)(=O)CC3)cc2O1` [Example 41, N-[6-(1,1-Dioxo-thiomorpholin-4-yl)-2,2-dimethyl-2,3-dihydro-1-benzofuran-5-yl]pyrazolo[1,5-a]pyrimidine-3-carboxamide], for which the Ki amounted to 0.084 µM.

Take `C[C@]1(CO)Cc2cc(NC(=O)c3cnn4cccnc34)c(N3C[C@H]4C[C@@H]3CO4)cc2O1` [Example 42, N—((R)-6-((1R,4R)-2-Oxa-5-azabicyclo[2.2.1]heptan-5-yl)-2-(hydroxymethyl)-2-methyl-2,3-dihydrobenzofuran-5-yl)pyrazolo[1,5-a]pyrimidine-3-carboxamide]: the Ki worked out at 0.2 µM.
